Data published in PMC9154192 (PLoS Biology, 2022).
Values after ≈ are worked out from the molar mass of the structure shown.

Key:
[1] = tested on: M. bovis; assay: microbe, parasite or virus in culture; assay type: cell-based; settings: Mycobacterium tuberculosis variant bovis
[2] = tested on: M. bolletii; assay: microbe, parasite or virus in culture; assay type: cell-based, Mycobacterium bolletii; settings: Mycobacteroides abscessus
[3] = tested on: M. tuberculosis H37Rv; assay: microbe, parasite or virus in culture; assay type: cell-based, Mycobacterium tuberculosis; settings: for MIC: Mycobacterium tuberculosis, H37RV, read-out: MIC
[4] = tested on: clinically isolated MDR, XDR, and TDR M. tuberculosis strains; assay: microbe, parasite or virus in culture; assay type: cell-based; settings: Mycobacterium tuberculosis
[5] = tested on: M. phocaicum; assay: microbe, parasite or virus in culture; assay type: cell-based, Mycobacterium phocaicum; settings: Mycolicibacterium phocaicum
[6] = tested on: M. avium; assay: microbe, parasite or virus in culture; assay type: cell-based; settings: Mycobacterium avium
[7] = tested on: M. gordonae; assay: microbe, parasite or virus in culture; assay type: cell-based; settings: Mycobacterium gordonae
[8] = tested on: M. heraklionease; assay: microbe, parasite or virus in culture; assay type: cell-based; settings: Mycobacterium
[9] = tested on: M. kansasii; assay: microbe, parasite or virus in culture; assay type: cell-based; settings: Mycobacterium kansasii
[10] = tested on: M. chitae; assay: microbe, parasite or virus in culture; assay type: cell-based, Mycobacterium chitae; settings: Mycolicibacterium chitae
[11] = tested on: M. goodie; assay: microbe, parasite or virus in culture; assay type: cell-based; settings: Mycobacterium
[12] = tested on: M. fortuitum; assay: microbe, parasite or virus in culture; assay type: cell-based, Mycobacterium fortuitum; settings: Mycolicibacterium fortuitum
[13] = tested on: M. massiliense; assay: microbe, parasite or virus in culture; assay type: cell-based, Mycobacterium massiliense; settings: Mycobacteroides abscessus
[14] = tested on: Trichophyton rubrum; assay: Broth dilution MIC (CLSI); assay type: cell-based; settings: read-out: MIC
Excerpt: (§1) Bacteria (Acinetobacter baumannii NCCP 14782, Citrobacter freundii NCCP 14766, Enterobacter aerogenes NCCP 14761, Escherichia coli NCCP 14762, Escherichia coli O157 NCCP 14541, Klebsiella pneumoniae NCCP 14764, Proteus mirabilis NCCP 14763, Proteus vulgaris NCCP 14765, Pseudomonas aeruginosa NCCP 14781, Salmonella Enteritidis NCCP 14771, Salmonella Paratyphi A NCCP 14759, Salmonella Typhimurium NCCP 16207, Serratia marcescens NCCP 14770, Shigella boydii NCCP 14745, Shigella dysenteriae NCCP 14746, Shigella flexneri NCCP 14744, Shigella sonnei NCCP 14773, Bacillus subtilis NCCP 11101, Corynebacterium diphtheriae NCCP 10353, Staphylococcus aureus MSSA NCCP 14780, Staphylococcus aureus MRSA NCCP 14769, Staphylococcus epidermidis NCCP 14768, Streptococcus pneumoniae NCCP 14774) and fungi (Aspergillus fumigatus NCCP 22454, Candida albicans NCCP 32557, Cryptococcus neoformans NCCP 32559, Microsporum canis NCCP 22454, Rhizopus oryzae NCCP 22458, Saccharomyces cerevisiae NCCP 32558, Trichophyton rubrum NCCP 22456) strains were obtained from the National Culture Collection for Pathogens (NCCP) (Chungbuk, Korea). The MIC of each agent was determined following the Clinical and Laboratory Standards Institute (CLSI).[40]

[15] = tested on: Shigella boydii; assay: Broth dilution MIC (CLSI); assay type: cell-based; settings: read-out: MIC
Excerpt: as §1

[16] = tested on: Streptococcus pneumoniae; assay: Broth dilution MIC (CLSI); assay type: cell-based; settings: read-out: MIC
Excerpt: as §1

[17] = tested on: Microsporum canis; assay: Broth dilution MIC (CLSI); assay type: cell-based; settings: read-out: MIC
Excerpt: as §1

[18] = tested on: Shigella dysenteriae; assay: Broth dilution MIC (CLSI); assay type: cell-based; settings: read-out: MIC
Excerpt: as §1

[19] = tested on: Bacillus subtilis; assay: Broth dilution MIC (CLSI); assay type: cell-based; settings: read-out: MIC
Excerpt: as §1

[20] = tested on: Salmonella Typhimurium; assay: Broth dilution MIC (CLSI); assay type: cell-based; settings: Salmonella enterica; Salmonella Typhimurium; read-out: MIC
Excerpt: as §1

[21] = tested on: Candida albicans; assay: Broth dilution MIC (CLSI); assay type: cell-based; settings: read-out: MIC
Excerpt: as §1

[22] = tested on: Enterobacter aerogenes; assay: Broth dilution MIC (CLSI); assay type: cell-based; settings: Klebsiella aerogenes; Enterobacter aerogenes; read-out: MIC
Excerpt: as §1

[23] = tested on: Serratia marcescens; assay: Broth dilution MIC (CLSI); assay type: cell-based; settings: read-out: MIC
Excerpt: as §1

[24] = tested on: Aspergillus fumigatus; assay: Broth dilution MIC (CLSI); assay type: cell-based; settings: read-out: MIC
Excerpt: as §1

[25] = tested on: Pseudomonas aeruginosa; assay: Broth dilution MIC (CLSI); assay type: cell-based; settings: read-out: MIC
Excerpt: as §1

[26] = tested on: Corynebacterium diphtheriae; assay: Broth dilution MIC (CLSI); assay type: cell-based; settings: read-out: MIC
Excerpt: as §1

[27] = tested on: Salmonella Enteritidis; assay: Broth dilution MIC (CLSI); assay type: cell-based; settings: Salmonella enterica; Salmonella Enteritidis; read-out: MIC
Excerpt: as §1

[28] = tested on: Shigella flexneri; assay: Broth dilution MIC (CLSI); assay type: cell-based; settings: read-out: MIC
Excerpt: as §1

[29] = tested on: Staphylococcus aureus, MSSA; assay: Broth dilution MIC (CLSI); assay type: cell-based; settings: read-out: MIC
Excerpt: as §1

[30] = tested on: Acinetobacter baumannii; assay: Broth dilution MIC (CLSI); assay type: cell-based; settings: read-out: MIC
Excerpt: as §1

[31] = tested on: Rhizopus oryzae; assay: Broth dilution MIC (CLSI); assay type: cell-based; settings: Rhizopus arrhizus; Rhizopus oryzae; read-out: MIC
Excerpt: as §1

[32] = tested on: Cryptococcus neoformans; assay: Broth dilution MIC (CLSI); assay type: cell-based; settings: read-out: MIC
Excerpt: as §1

[33] = tested on: Proteus vulgaris; assay: Broth dilution MIC (CLSI); assay type: cell-based; settings: read-out: MIC
Excerpt: as §1

[34] = tested on: Escherichia coli; assay: Broth dilution MIC (CLSI); assay type: cell-based; settings: read-out: MIC
Excerpt: as §1

[35] = tested on: Klebsiella pneumoniae; assay: Broth dilution MIC (CLSI); assay type: cell-based; settings: read-out: MIC
Excerpt: as §1

[36] = tested on: Proteus mirabilis; assay: Broth dilution MIC (CLSI); assay type: cell-based; settings: read-out: MIC
Excerpt: as §1

[37] = tested on: Staphylococcus epidermidis; assay: Broth dilution MIC (CLSI); assay type: cell-based; settings: read-out: MIC
Excerpt: as §1

[38] = tested on: Saccharomyces cerevisiae; assay: Broth dilution MIC (CLSI); assay type: cell-based; settings: read-out: MIC
Excerpt: as §1

[39] = tested on: Shigella sonnei; assay: Broth dilution MIC (CLSI); assay type: cell-based; settings: read-out: MIC
Excerpt: as §1

[40] = tested on: Salmonella Paratyphi A; assay: Broth dilution MIC (CLSI); assay type: cell-based; settings: Salmonella enterica; Salmonella Paratyphi A; read-out: MIC
Excerpt: as §1

[41] = tested on: Staphylococcus aureus, MRSA; assay: Broth dilution MIC (CLSI); assay type: cell-based; settings: read-out: MIC
Excerpt: as §1

[42] = tested on: Citrobacter freundii; assay: Broth dilution MIC (CLSI); assay type: cell-based; settings: read-out: MIC
Excerpt: as §1

[43] = tested on: Escherichia coli O157; assay: Broth dilution MIC (CLSI); assay type: cell-based; settings: read-out: MIC
Excerpt: as §1

For `NNC(=O)c1ccncc1` [INH, isoniazid, reference compound], the MIC [1] was 0.2 µg/mL (≈ 1.46 µM), the MIC [2] was over 100 µg/mL and the MIC [3] was 0.4 µg/mL (≈ 2.92 µM). For the same compound, the MIC ([4]; TDR-1) was 12.5 µg/mL (≈ 91.1 µM), the MIC ([4]; TDR-2) was 6.3 µg/mL (≈ 45.9 µM) and the MIC ([4]; TDR-3) was 12.5 µg/mL (≈ 91.1 µM). It also gave an MIC [5] of over 100 µg/mL, an MIC [6] of 25 µg/mL (≈ 182 µM) and an MIC [7] of over 100 µg/mL. For the same compound, the MIC [8] was over 100 µg/mL, the MIC [9] was 0.2 µg/mL (≈ 1.46 µM) and the MIC [10] was 12.5 µg/mL (≈ 91.1 µM). The MIC [11] was 25 µg/mL (≈ 182 µM), the MIC [12] was 25 µg/mL (≈ 182 µM) and the MIC [13] was 12.5 µg/mL (≈ 91.1 µM). The MIC [14] was over 100 µg/mL, the MIC [15] was over 100 µg/mL and the MIC [16] was over 100 µg/mL. The MIC [17] was over 100 µg/mL, the MIC [18] was over 100 µg/mL and the MIC [19] was over 100 µg/mL. It also gave an MIC [20] of over 100 µg/mL, an MIC [21] of over 100 µg/mL and an MIC [22] of over 100 µg/mL. The MIC [23] was over 100 µg/mL, the MIC [24] was over 100 µg/mL and the MIC [25] was over 100 µg/mL. It also gave an MIC [26] of over 100 µg/mL, an MIC [27] of over 100 µg/mL and an MIC [28] of over 100 µg/mL. The MIC [29] was over 100 µg/mL, the MIC [30] was over 100 µg/mL and the MIC [31] was over 100 µg/mL. The MIC [32] was over 100 µg/mL, the MIC [33] was over 100 µg/mL and the MIC [34] was over 100 µg/mL. The MIC [35] was over 100 µg/mL, the MIC [36] was over 100 µg/mL and the MIC [37] was over 100 µg/mL. It also gave an MIC [38] of over 100 µg/mL, an MIC [39] of over 100 µg/mL and an MIC [40] of over 100 µg/mL. For the same compound, the MIC [41] was over 100 µg/mL, the MIC [42] was over 100 µg/mL and the MIC [43] was over 100 µg/mL.

`COC(=O)[C@@H]1CCC(=O)N1Cc1cc2ccc(OC)cc2c2cc(OC)c(OC)cc12` [PP1S, (S)-N-[(2,3,6-Trimethoxy-10-phenanthryl)methyl]-pyroglutamic acid methyl ester] was tested, and the MIC [1] was 1.6 µg/mL (≈ 3.78 µM), the MIC [2] was over 100 µg/mL and the “in vitro antitubercular activities (S-form vs R-form)” value [3] was “had in vitro antitubercular activities”. For the same compound, the MIC [3] was 1.6 µg/mL (≈ 3.78 µM), the “SI (CC50/MIC)” value ([3]; ratio of CC50 for L929 fibroblasts to MIC for strain H37Rv) was over 62.5 and the MIC ([4]; TDR-1) was 3.3 µg/mL (≈ 7.79 µM). It also gave an MIC ([4]; TDR-2) of 0.8 µg/mL (≈ 1.89 µM), an MIC ([4]; TDR-3) of 3.1 µg/mL (≈ 7.32 µM) and an MIC [5] of over 100 µg/mL. For the same compound, the MIC [6] was over 100 µg/mL, the MIC [7] was over 100 µg/mL and the MIC [8] was over 100 µg/mL. It also gave an MIC [9] of over 100 µg/mL, an MIC [10] of over 100 µg/mL and an MIC [11] of over 100 µg/mL. It also gave an MIC [12] of over 100 µg/mL, an MIC [13] of over 100 µg/mL and an MIC [14] of over 100 µg/mL. The MIC [15] was over 100 µg/mL, the MIC [16] was over 100 µg/mL and the MIC [17] was over 100 µg/mL. For the same compound, the MIC [18] was over 100 µg/mL, the MIC [19] was over 100 µg/mL and the MIC [20] was over 100 µg/mL. For the same compound, the MIC [21] was over 100 µg/mL, the MIC [22] was over 100 µg/mL and the MIC [23] was over 100 µg/mL. It also gave an MIC [24] of over 100 µg/mL, an MIC [25] of over 100 µg/mL and an MIC [26] of over 100 µg/mL. For the same compound, the MIC [27] was over 100 µg/mL, the MIC [28] was over 100 µg/mL and the MIC [29] was over 100 µg/mL. For the same compound, the MIC [30] was over 100 µg/mL, the MIC [31] was over 100 µg/mL and the MIC [32] was over 100 µg/mL. The MIC [33] was over 100 µg/mL, the MIC [34] was over 100 µg/mL and the MIC [35] was over 100 µg/mL. It also gave an MIC [36] of over 100 µg/mL, an MIC [37] of over 100 µg/mL and an MIC [38] of over 100 µg/mL. For the same compound, the MIC [39] was over 100 µg/mL, the MIC [40] was over 100 µg/mL and the MIC [41] was over 100 µg/mL. It also gave an MIC [42] of over 100 µg/mL and an MIC [43] of over 100 µg/mL.
